Laboratory results published in US8722887B2, “Sulfonylpyrazole and sulfonylpyrazoline carboxamidine derivatives as 5-HT6 antagonists” (Abbvie Bahamas, Ltd., priority 2006, dated 2014).
Where two headings read alike, the source gives them in different places.

Assays:
[1] = Rogers, 1999; cited from earlier work
5-HT6 receptor [2] = target: T1, 5-HT6 receptor (Homo sapiens, UniProt P50406); assay: In vitro affinity for human 5-HT6 receptors, [3H]-LSD binding in CHO cell membranes; set-up: host or cells: CHO/Gα16/mtAEQ/h5HT6-A1 (CHO AequoScreen recombinant cell line); details: [3H]-LSD 5.0 nM, membranes of CHO cells transfected with human 5-HT6; read-out: 5-HT6 pKi (converted)
T1 sequence (P50406 whole entry): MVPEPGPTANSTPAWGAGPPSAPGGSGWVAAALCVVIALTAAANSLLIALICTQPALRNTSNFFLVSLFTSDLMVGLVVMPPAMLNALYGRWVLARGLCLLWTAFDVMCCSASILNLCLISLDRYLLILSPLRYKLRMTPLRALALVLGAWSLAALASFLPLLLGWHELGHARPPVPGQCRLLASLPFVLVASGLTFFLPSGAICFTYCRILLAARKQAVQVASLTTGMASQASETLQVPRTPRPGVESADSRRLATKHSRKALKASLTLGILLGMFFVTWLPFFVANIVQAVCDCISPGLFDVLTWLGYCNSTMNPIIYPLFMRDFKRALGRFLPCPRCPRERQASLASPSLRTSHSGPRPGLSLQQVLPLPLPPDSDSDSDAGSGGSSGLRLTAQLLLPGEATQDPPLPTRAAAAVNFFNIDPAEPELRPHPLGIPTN

5-HT6 receptor [3] = target: T1, 5-HT6 receptor; assay: In vitro functional activity (antagonism) on human 5-HT6 receptors, CHO-human-5HT6-Aequorin assay; format: cell-based; set-up: host or cells: CHO/Gα16/mtAEQ/h5HT6-A1 (CHO AequoScreen recombinant cell line)
5-HT6 receptor [4] = target: T1, 5-HT6 receptor; details: 5-HT6 receptor (Sleight, 1998); cited from earlier work
[5] = Sleight, 1998; cited from earlier work
[6] = antagonism of 10^-8 M α-methylserotonin induced luminescence, CHO-human-5HT6-Aequorin cells, read-out: 5-HT6 pA2 (converted)

Row | SMILES | Ki (5-HT6 receptor [2]) | melting point | further results
1 | COc1ccc(NS(=O)(=O)c2sc3ccc(Cl)cc3c2C)cc1N1CCNCC1 [SB-271046] |  |  | performance in the Morris water maze [1]: improved performance
2 | CNc1cc(NS(=O)(=O)c2ccc(N)cc2)cc(NC)n1 [Ro 63-0563] |  |  | Ki (5-HT6 receptor [4]): 12 nM; pharmacokinetics [5]: poor
3 | CCC1CN(/C(N)=N/S(=O)(=O)c2c(Cl)nc3sccn23)N=C1C (centres unmarked) [compound 130] | 79.4 nM | 139 to 140 °C | Kb (5-HT6 receptor [3]; [6]): 6.31 nM
4 | CCN/C(=N\S(=O)(=O)c1ccccc1Cl)N1N=CCC1c1ccccc1 (centres unmarked) [compound 142] |  | 164 to 166 °C | Kb (5-HT6 receptor [3]): 50.1 nM
5 | CCN/C(=N\S(=O)(=O)c1ccccc1Cl)N1CCC(c2ccccc2)=N1 [compound 138] | 631 nM | 138 to 140 °C | 
6 | CNc1cc(NS(=O)(=O)c2ccc(N)cc2)nc(NC)n1 [Ro 04-6790] |  |  | Ki (5-HT6 receptor [4]): 50 nM; pharmacokinetics [5]: poor
7 | CN1CCN(/C(=N\S(=O)(=O)c2ccc(F)cc2)N2CCC(c3ccc(Cl)cc3)=N2)CC1 [compound 136] |  | 179 to 184 °C | 

Now from value to compound, other results behind:

Row | Ki (5-HT6 receptor [2]) | melting point | SMILES | further results
8 | 1.58 nM | 146 to 147 °C | CCN/C(=N\S(=O)(=O)c1c(Cl)nc2sccn12)N1CC2(C=N1)CCCC2 [compound 133] | Kb (5-HT6 receptor [3]; [6]): 0.158 nM
9 | 200 nM | 162 to 173 °C | CCC1C=NN(/C(=N/S(=O)(=O)c2ccccc2Cl)N2CCNCC2)C1 (centres unmarked) [compound 16] | 
10 |  | 114 to 115 °C | CCC1C=NN(/C(N)=N/S(=O)(=O)c2ccc(Cl)cc2)C1 (centres unmarked) [compound 30] | Kb (5-HT6 receptor [3]; [6]): 1260 nM
11 | 158 nM | 165 to 166 °C | CC1=NN(/C(N)=N/S(=O)(=O)c2cccc(Cl)c2)CC1c1ccccc1 (centres unmarked) [compound 141] | 
12 |  | 146 to 147 °C | CCC1C=NN(/C(N)=N/S(=O)(=O)c2c(Cl)nc3sccn23)C1 (single isomer, unassigned; (+)) [(+)123] | 
13 |  | 188 to 189 °C | CN/C(=N\S(=O)(=O)c1ccc(F)cc1)N1CCC(c2ccc(Cl)cc2)=N1 | 
14 |  | 146 to 147 °C | N/C(=N\S(=O)(=O)c1cccc(Cl)c1)N1CC2(C=N1)CCCC2 [compound 97] | 
15 |  | 43 to 45 °C | CCN/C(=N\S(=O)(=O)c1ccccc1)N1CC(CC)C=N1 (centres unmarked) [compound 24] | 
